We go through 26 compounds from patent US6603012B2, “RAR selective retinoid agonists” (Hoffmann-La Roche Inc., priority 2000, dated 2003).

The structures appear in SMILES notation.

Series [1] has as its system elastase-induced emphysema. Description: Repair of alveoli in the rat model of elastase-induced emphysema (morphometric analysis). Format: in vivo, male Sprague Dawley rats. To be noted: once daily starting 21 days post elastase injury. The procedure: RAR selective agonists were evaluated for its effects on alveolar repair in the rat model of elastase-induced emphysema in rats (D. Massaro et al. Nature Medicine (1997, 3, 675). Animals were divided into treatment groups of approximately eight. Lung inflammation and alveolar damage was induced in male Sprague Dawley rats by a single instillation of pancreatic elastase(porcine derived, Calbiochem) 2 U/gram body mass. Three weeks post injury, all-trans retinoic acid or RAR agonist was dissolved in dimethylsulfoxide (20 mg/ml) and stored at −20 C. Fresh working stocks were prepared daily by dilution in PBS to a final concentration of 2 mg/ml. Animals were dosed once daily with the retinoid by intraperitoneal injection or orally, starting 21 days post injury. Control groups were challenged with elastase and 21 days later treated with Vehicle (DMSO/PBS) for 14 days. Animals were sacrificed 24 hours after the last dose by exsanguination under deep anesthesia. The lungs were inflated with 10% neutral buffered formalin by intratracheal instillation at a constant rate (1 ml/gram body mass/min). The lung was excised and immersed in fixative for 24 hours prior to processing. Standard methods were used to prepare 5 um paraffin sections. Sections were stained with Hematoxylin and Eosin (H%E). Computerized Morphometric analysis was performed to determine the average alveolar size and alveolar number (Table 1).

The test system of series [2] is animal models of emphysema. To be noted: cited from earlier work.
For a further series, the system named is alveoli in rats. Conditions: postnatal administration; cited from earlier work.

For `CC1(C)CCC(C)(C)c2cc(CCOc3ccc(C(=O)O)cc3)ccc21` [Example 11.2, 4-[2-(5,5,8,8-Tetramethyl-5,6,7,8-tetrahydronaphthalen-2-yl)-ethyloxy]-benzoic acid], the melting point is 195 to 196 °C.
As to `CC1(C)CCSc2ccc(C(/C=C/c3ccc(C(=O)O)cc3)Cc3ccccc3)cc21` (racemic) [Example 40.2, (RS)-(E)-4-[3-(4,4-Dimethyl-thiochroman-6-yl)-4-phenylbut-1-enyl]-benzoic acid], the melting point lay within 183 to 184 °C.
`CCCCOC(C(=O)Oc1ccc(C(=O)O)cc1)c1ccc2c(c1)C(C)(C)CCC2(C)C` (single isomer, unassigned) [Example 16 (from diastereomer II), (S)- or (R)-4-[butoxy-(5,5,8,8-tetramethyl-5,6,7,8-tetrahydro-naphthalen-2-yl)-acetoxy]-benzoic acid]: the melting point was 113 to 114 °C.
Still for that read-out and setting: to `CC1(C)CCC(C)(C)c2cc(C(Cc3ccccc3)C(=O)Oc3ccc(C(=O)O)cc3)ccc21` (racemic) [Example 3.2, (RS)-4-[3-Phenyl-2-(5,5,8,8-tetramethyl-5,6,7,8-tetrahydronaphthalen-2-yl)-propanoyloxy]-benzoic acid] belongs 163 to 164 °C.
Regarding `CC1(C)CCSc2ccc(C(/C=C/c3ccc(C(=O)O)cc3)CCc3ccccc3)cc21` (racemic) [Example 40.3, (RS)-(E)-4-[3-(4,4-Dimethyl-thiochroman-6-yl)-5-phenylpent-1-enyl]-benzoic acid], the melting point was in the range of 63 to 76 °C.
`COc1ccc(CC(/C=C/c2ccc(C(=O)O)cc2)c2ccc3c(c2)C(C)(C)CCC3(C)C)cc1` (racemic) [Example 10.15, (RS)-(E)-4-[4-(4-Methoxyphenyl)-3-(5,5,8,8-tetramethyl-5,6,7,8-tetrahydronaphthalen-2-yl)-but-1-enyl]-benzoic acid]: the melting point was 170 to 175 °C.
`CCCCCC(/C=C/c1ccc(C(=O)O)cc1)c1ccc2c(c1)C(C)(C)CCC2(C)C` (racemic) [(RS)-(E)-4-[3-(5,5,8,8-tetramethyl-5,6,7,8-tetrahydronaphthalen-2-yl)-oct-1-enyl]-benzoic Acid]: the entries for the “% repair area” value in series [1] (0.003 mg/kg p.o.), in series [1] (0.01 mg/kg p.o.) and in series [1] (0.03 mg/kg p.o.) were 53%, 49% and 32%, respectively.
Regarding `CC=CCC(/C=C/c1ccc(C(=O)O)cc1)c1ccc2c(c1)C(C)(C)CCC2(C)C` (racemic) [Example 10.4, (RS)-(E)-4-[3-(5,5,8,8-Tetramethyl-5,6,7,8-tetrahydronaphthalen-2-yl)-hepta-1,5-dienyl]-benzoic acid], the melting point was 145 to 147 °C.
On the same count and under the same terms, for `CCCCCC(/C=C/c1ccc(C(=O)O)cc1F)c1ccc2c(c1)C(C)(C)CCC2(C)C` (racemic) [Example 10.16, (RS)-(E)-3-Fluoro-4-[3-(5,5,8,8-tetramethyl-5,6,7,8-tetrahydronaphthalen-2-yl)-oct-1-enyl]-benzoic acid] the value was 112 to 113 °C; for `CC1(C)CCC(C)(C)c2cc(C(/C=C/c3ccc(C(=O)O)cc3)Cc3ccccc3)ccc21` (racemic) [Example 10.8, (RS)-(E)-4-[4-Phenyl-3-(5,5,8,8-tetramethyl-5,6,7,8-tetrahydronaphthalen-2-yl)-but-1-enyl]-benzoic acid], 183 to 184 °C; for `CCCCCC(C#Cc1ccc(C(=O)O)cc1)c1ccc2c(c1)C(C)(C)CCC2(C)C` (racemic) [Example 12, (RS)-4-[3-(5,5,8,8-tetramethyl-5,6,7,8-tetrahydronaphthalen-2-yl)-oct-1-ynyl]-benzoic Acid], 115 to 116 °C.
The same measure, in the same setting: to `COC(C(=O)Oc1ccc(C(=O)O)cc1)c1ccc2c(c1)C(C)(C)CCC2(C)C` (racemic) [Example 15.2. d), (RS)-4-[methoxy-(5,5,8,8-tetramethyl-5,6,7,8-tetrahydro-naphthalen-2-yl)-acetoxy]-benzoic acid] belongs 190 to 195 °C.
On to `CC1=C(/C=C/C(C)=C/C=C/C(C)=C/C(=O)O)C(C)(C)CCC1` [all-trans retinoic acid], for which the “formation of new alveoli and elastic recoil” value in series [2] was “can induce formation of new alveoli and return elastic recoil to near normal”. In the series with alveoli in rats, the number of alveoli result was “increases the number of alveoli in rats”.
Turning to `CCCC(/C=C/c1ccc(C(=O)O)cc1)c1ccc2c(c1)C(C)(C)CCC2(C)C` (racemic) [Example 10.3, (RS)-(E)-4-[3-(5,5,8,8-Tetramethyl-5,6,7,8-tetrahydronaphthalen-2-yl)-hex-1-enyl]-benzoic acid], the melting point lay within 116 to 118 °C.
Compound `CC1(C)CCC(C)(C)c2cc(C(/C=C/c3ccc(C(=O)O)cc3)CCc3ccccc3)ccc21` (racemic) [Example 10.11, (RS)-(E)-4-[5-Phenyl-3-(5,5,8,8-tetramethyl-5,6,7,8-tetrahydronaphthalen-2-yl)-pent-1-enyl]-benzoic acid] showed a melting point of 78 to 79 °C.
The compound `CCCOC(C(=O)Oc1ccc(C(=O)O)cc1)c1ccc2c(c1)C(C)(C)CCC2(C)C` (racemic) [Example 15.4. d), (RS)-4-[propoxy-(5,5,8,8-tetramethyl-5,6,7,8-tetrahydro-naphthalen-2-yl)-acetoxy]-benzoic acid] showed a melting point of 155 to 156 °C.
The compound `CCCCC(/C=C/c1ccc(C(=O)O)cc1)c1ccc2c(c1)C(C)(C)CCC2(C)C` (racemic) [Example 10.5, (RS)-(E)-4-[3-(5,5,8,8-Tetramethyl-5,6,7,8-tetrahydronaphthalen-2-yl)-hept-1-enyl]-benzoic acid] had a melting point of 107 to 108 °C.
Still for that read-out and setting: to `CCOC(C(=O)Oc1ccc(C(=O)O)cc1)c1ccc2c(c1)C(C)(C)CCC2(C)C` (racemic) [Example 15.3. d), (RS)-4-[ethoxy-(5,5,8,8-tetramethyl-5,6,7,8-tetrahydro-naphthalen-2-yl)-acetoxy]-benzoic acid] belongs 123 to 125 °C.
In turn, `CC1(C)CCC(C)(C)c2cc(C(Cc3ccc(C(F)(F)F)cc3)C(=O)Oc3ccc(C(=O)O)cc3)ccc21` (racemic) [Example 3.4, (RS)-4-[2-(5,5,8,8-Tetramethyl-5,6,7,8-tetrahydronaphthalen-2-yl)-3-(4-trifluoromethylphenyl)-propanoyloxy]-benzoic acid] displayed a melting point of 158 to 159 °C.
Compound `CCCCOC(C(=O)Oc1ccc(C(=O)O)cc1)c1ccc2c(c1)C(C)(C)CCC2(C)C` (single isomer, unassigned) [Example 16 (from diastereomer I), (R)- or (S)-4-[butoxy-(5,5,8,8-tetramethyl-5,6,7,8-tetrahydro-naphthalen-2-yl)-acetoxy]-benzoic acid] came in with a melting point of 112 to 113 °C.
`CCCCCC(/C=C/c1ccc(C(=O)O)s1)c1ccc2c(c1)C(C)(C)CCC2(C)C` (racemic) [Example 10.12, (RS)-(E)-5-[3-(5,5,8,8-Tetramethyl-5,6,7,8-tetrahydronaphthalen-2-yl)-oct-1-enyl]-thiophene-2-carboxylic acid] returned a melting point of 128 to 129 °C.
In turn, `CCOCCC(C(=O)Oc1ccc(C(=O)O)cc1)c1ccc2c(c1)C(C)(C)CCC2(C)C` (racemic) [Example 3.5, (RS)-4-[4-Ethoxy-2-(5,5,8,8-tetramethyl-5,6,7,8-tetrahydronaphthalen-2-yl)-butanoyloxy]-benzoic acid] had a melting point of 133 to 134 °C.
For `CC1(C)CCC(C)(C)c2cc(C(/C=C/c3ccc(C(=O)O)cc3)Cc3ccc(F)cc3)ccc21` (racemic) [Example 10.13, (RS)-(E)-4-[4-(4-Fluorophenyl)-3-(5,5,8,8-tetramethyl-5,6,7,8-tetrahydronaphthalen-2-yl)-but-1-enyl]-benzoic acid], the melting point lay within 168 to 169 °C.
`CC1(C)CCC(C)(C)c2cc(C(/C=C/c3ccc(C(=O)O)cc3)Cc3ccc(Cl)cc3)ccc21` (racemic) [Example 10.9, (RS)-(E)-4-[4-(4-Chlorophenyl)-3-(5,5,8,8-tetramethyl-5,6,7,8-tetrahydronaphthalen-2-yl)-but-1-enyl]-benzoic acid] showed a melting point of 168 to 169 °C.
Compound `CC(C)CC(/C=C/c1ccc(C(=O)O)cc1)c1ccc2c(c1)C(C)(C)CCC2(C)C` (racemic) [Example 10.7, (RS)-(E)-4-[5-Methyl-3-(5,5,8,8-tetramethyl-5,6,7,8-tetrahydronaphthalen-2-yl)-hex-1-enyl]-benzoic acid] showed a melting point of 61 to 78 °C.
In the case of `CC(/C=C/c1ccc(C(=O)O)cc1)c1ccc2c(c1)C(C)(C)CCC2(C)C` (racemic) [Example 10.2, (RS)-(E)-4-[3-(5,5,8,8-Tetramethyl-5,6,7,8-tetrahydronaphthalen-2-yl)-but-1-enyl]-benzoic acid], the melting point lay in the range of 203 to 204 °C.
